Reference: patent US5045566A, “Novel imidate insecticides” (ICI Americas Inc., priority 1989, dated 1991)

What was measured:
Format in all cases: in vivo
[1] = system: Housefly [Musca domestica]; experiment: Housefly contact mortality in dishes (HF), 48 hours; details: μg of test compound per 25 female flies
Method in brief: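 Residual contact test: acetone dilution, 0.01% peanut oil spreader, solvent evaporated; 25 ♀ flies (1-2 d old) per cage; sugar-water plug; 48 h mortality read. LC50 in μg/25 female flies, from dose-mortality curves; top dose 100 μg/25 flies.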

[2] = system: Cabbage Looper [Trichoplusia ni (Hubner)]; experiment: Cabbage looper leaf dip (CL), 3-5 days; details: percent in solution, second-instar larvae
Method in brief: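 LC50, as percent test compound in solution, derived from dosage-mortality curves; concentrations started at 0.1% and went lower. Five second-instar larvae per dish fed on acetone-water-dipped, dried squash cotyledons in a humid chamber. Deaths recorded 3-5 days post-infestation.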

[3] = system: Tobacco Budworm [Heliothis virescens (Fabricius)] larvae; experiment: Tobacco budworm larvae, contact (TBW-C), 5 days; details: percent in solution, second-instar larvae
Experimental: (§1) The compounds in Tables 1 and 2 above were tested for insecticidal activity using the following testing procedures. LC50 values, based on the results of these tests and calculated according to dosage-mortality curves, are expressed in Table 3.
Tobacco Budworm [Heliothis virescens (Fabricius)]:
(a) Contact: Test compounds were diluted in a 50-50 acetone-water solution. Cotton (Gossypium sp.) cotyledons were immersed in the test solutions for 2-3 seconds and placed on a wire screen to dry. The dried leaves were placed in petri dishes containing a moistened piece of filter paper and infested with 5 second-instar tobacco budworm larvae. The dishes were placed in a high humidity chamber for 5 days, and percent mortality of the larvae recorded. Test concentrations ranged from 0.1% downward. The LC-50 values are expressed below in Table 3 under the heading "TBW-C" in terms of percent of the test compound in the solution.

[4] = system: Maize weevil [Sitophilus zeamais (Motschulsky)]; experiment: Maize weevil on dipped corn seeds (MW), 48 hours; details: percent in solution, adult weevils
Method in brief: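 LC50, given as percent of compound in dipping solution, comes from dosage-mortality curves over concentrations descending from 0.01%. Four corn seeds soaked 2-3 s in 50:50 acetone:water solution were dried and held with 10 adult weevils, about 25° C, mortality read after 48 h.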

[5] = system: Aster Leafhopper [Macrosteles fascifrens (Stal)]; experiment: Aster leafhopper on dipped oat seedlings (LH), 48 hours; details: percent in solution, adults/nymphs
Method in brief: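 Three ~10 cm oat seedlings per cup were dipped 2-3 seconds in 50-50 acetone-water compound solutions, dried, and caged with ten adult/nymph leafhoppers. Mortality was counted after 48 hours at concentrations from 0.05% downward. LC50, as percent compound in solution, came from dosage-mortality curves.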

[6] = system: Tobacco Budworm [Heliothis virescens (Fabricius)] eggs; experiment: Tobacco budworm eggs (TBW-E); details: percent in solution; 2-day old eggs
Method in brief: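 LC50 is given as percent compound in the dipping solution, fitted from dosage-mortality curves. Two-day-old eggs on paper towel were dipped in acetone solutions (top concentration 0.1%), kept at 78° F on rearing medium, and scored after control hatch and larval feeding.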

[7] = system: Beet Armyworm (Spodoptera exigua); experiment: Beet armyworm leaf dip (BAW), 5 days; details: percent in solution; second-instar larvae; five days
Experimental: as §1
Beet Armyworm (Spodoptera exigua):
Test compounds were diluted in a 50-50 acetone-water solution. Young leaves of sugar beets (Beta vulgaris) were immersed in the test solutions for 2-3 seconds and placed on a wire screen to dry. The dried leaves were placed in petri dishes containing a moistened filter paper and infested with five second-instar beet armyworm larvae. The dishes were placed in a high humidity chamber. Mortality of the larvae was recorded five days later. Test concentrations ranged from 0.1% downward. The LC-50 values are expressed below in Table 3 under the heading "BAW" in terms of percent of the test compound in solution.

[8] = system: Black Bean Aphid [Aphis fabae (Scop.)]; experiment: Black bean aphid spray test on nasturtium (BBA), 48 hours; details: percent of test compound in sprayed solution
Method in brief: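 LC50, given as percent test compound in the sprayed liquid, was calculated from dosage-mortality curves using concentrations from 0.05% downward. Sprays in 50:50 acetone-water went to runoff on ~5 cm nasturtiums carrying 25-50 aphids of mixed ages, one day after infestation. Deaths were counted 48 h later under greenhouse conditions.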

SMILES	LC50 HF [1]	LC50 CL [2]	LC50 TBW C (contact) [3]	LC50 MW [4]	LC50 LH [5]	LC50 TBW E (eggs) [6]	LC50 BAW [7]	LC50 BBA [8]
CC(C)C(=Nc1cccc(C(F)(F)F)c1)OCc1ccc(F)c(Oc2ccc(F)cc2)c1 [Compound 268]	4 µg	0.000025%	0.0005%	> 0.01%	0.0005%	0.023%	0.001%	> 0.05%
CC(C)C(=Nc1ccc(C(C)C)cc1)OCc1cccc(Oc2ccccc2)c1 [Compound 144]	100 µg	0.002%	0.006%	> 0.01%	0.0006%	0.05%	> 0.01%	0.003%
CC(C)C(=Nc1cccc(C(F)(F)F)c1)OCc1ccc(F)c(Oc2ccccc2)c1 [Compound 80]	4.5 µg	0.0003%	0.00075%	–	0.0001%	0.005%	0.0018%	0.00025%
CC(C)C(=Nc1ccc(F)c(F)c1)OCc1cccc(Oc2ccccc2)c1 [Compound 54]	3.5 µg	0.0003%	0.001%	–	0.00015%	0.017%	0.004%	0.001%
CC(=Nc1ccccc1)OCc1cccc(Oc2ccccc2)c1 [Compound 42]	45 µg	> 0.1%	> 0.1%	> 0.01%	> 0.05%	> 0.1%	> 0.1%	> 0.05%
CC(C)C(=Nc1ccc(F)cc1F)OCc1cccc(Oc2ccccc2)c1 [Compound 52]	8 µg	0.0025%	0.004%	–	0.001%	> 0.05%	0.01%	0.001%
CC(C)C(=Nc1ccc2c(c1)OC(F)(F)O2)OCc1ccc(F)c(Oc2ccc(F)cc2)c1 [Compound 284]	39 µg	0.00005%	0.0002%	0.0075%	0.0003%	–	0.0025%	0.0003%
CC(C)C(=Nc1ccc2c(c1)OC(C)(C)O2)OCc1ccc(F)c(Oc2ccc(F)cc2)c1 [Compound 283]	23 µg	0.00009%	0.0009%	> 0.01%	–	0.016%	0.0013%	–
CC(C)C(=Nc1ccc(Cl)c(C(F)(F)F)c1)OCc1cccc(Oc2ccccc2)c1 [Compound 71]	50 µg	0.0006%	0.0008%	–	0.002%	0.065%	0.0004%	0.001%
Clc1ccc(N=C(OCc2cccc(Oc3ccccc3)c2)C(Cl)Cl)c(Cl)c1 [Compound 4]	100 µg	0.007%	0.05%	–	> 0.05%	> 0.1%	0.04%	> 0.05%
CC(C)C(=Nc1ccc(I)cc1)OCc1ccc(F)c(Oc2ccc(F)cc2)c1 [Compound 335]	34 µg	0.00027%	0.00025%	> 0.01%	–	0.05%	> 0.1%	0.0008%
CC(C)C(=Nc1ccc(F)c(Cl)c1)OCc1cc(Oc2ccc(F)cc2)c(F)cc1F [Compound 343]	40 µg	0.00027%	0.00025%	> 0.01%	–	> 0.1%	> 0.1%	0.002%
CC(C)C(=Nc1ccc(Br)c(F)c1)OCc1ccc(F)c(Oc2ccc(F)cc2)c1 [Compound 282]	16 µg	0.00007%	0.0007%	0.008%	–	0.02%	0.0025%	–
CC(C)C(=Nc1ccc(Cl)cc1)OCc1cccc(Oc2ccccc2)c1 [Compound 2]	4.5 µg	0.006%	0.0009%	–	0.0003%	0.04%	0.01%	0.0003%
Clc1ccccc1N=C(OCc1cccc(Oc2ccccc2)c1)C(Cl)Cl [Compound 34]	> 100 µg	0.015%	0.01%	–	–	> 0.1%	0.015%	> 0.05%
CC(C)C(=Nc1ccc(F)c(Cl)c1F)OCc1cccc(Oc2ccc(Cl)cc2)n1 [Compound 500]	16 µg	0.00009%	0.00075%	–	–	0.02%	0.002%	> 0.05%
Cc1ccc(N=C(OCc2cccc(Oc3ccccc3)c2)C(Cl)Cl)cc1 [Compound 139]	4.2 µg	0.015%	0.005%	–	–	0.05%	0.007%	0.001%
CC(C)C(=Nc1cccc(F)c1)OCc1cccc(Oc2ccccc2)c1 [Compound 47]	10 µg	0.002%	0.002%	–	0.0003%	0.06%	0.002%	0.001%
CC(C)C(=Nc1ccc(F)cc1)OCc1ccc(F)c(Oc2ccccc2)c1 [Compound 53]	2 µg	0.0005%	0.0025%	–	–	0.02%	0.003%	0.001%
CC(C)C(=Nc1ccc2c(c1)OC(F)(F)O2)OCc1cccc(Oc2ccc(Cl)cc2)c1 [Compound 450]	72 µg	0.00016%	0.0001%	0.01%	–	0.015%	0.005%	–
CC(C)C(=Nc1ccc(F)c(Cl)c1F)OCc1cccc(Oc2ccccc2)c1 [Compound 332]	7 µg	0.00045%	0.00075%	–	–	0.015%	0.0012%	> 0.05%
Cc1c(Cl)cccc1N=C(OCc1cccc(Oc2ccccc2)c1)C(Cl)Cl [Compound 97]	10 µg	0.002%	0.004%	–	–	0.04%	0.01%	0.001%
CC(C)C(=Nc1ccc(Br)cc1)OCc1ccc(F)c(Oc2ccc(F)cc2)c1 [Compound 333]	15 µg	0.00024%	0.00075%	> 0.01%	–	0.025%	> 0.1%	0.001%
